Results taken from article PMC4947679, “Quantitative In Vitro and In Vivo Evaluation of Intestinal and Blood-Brain Barrier Transport Kinetics of the Plant N-Alkylamide Pellitorine” (BioMed Research International, 2016).
Read-outs that look alike come from different tables or passages of the source.

Columns and labels:
[1] = parameters: method as in PMID 24055064; details: cited from earlier work
[2] = Capillary depletion experiment in mice; format: in vivo, ICR-CD-1 mice; details: 10 min after intravenous injection; for Kp at 10 min: female, ICR-CD-1, mouse, 36 μg/mouse
Description: A capillary depletion experiment was performed to distinguish the transport of pellitorine into the brain, represented by the parenchyma, and part of pellitorine which is trapped by the endothelial cells of the brain, represented by the capillaries. A method of Triguero et al. was used, which was modified by Gutierrez et al.. The mice were anesthetized intraperitoneally with 40% (w/V) urethane solution (3 g/kg). Thereafter, 20 μL of the 1.8 mg/mL pellitorine dose solution was injected into the jugular vein. Ten min after injection, blood was collected from the abdominal aorta and serum was obtained by centrifuging the blood at 10 000 ×g during 15 min at 21°C. Then, after removing the skin of the mice's chest, the aorta is clamped, the jugular veins are severed, and the brain is immediately perfused manually with 20 mL of Lactated Ringer's solution. The mice are decapitated, and the brains are isolated, weighed, and put into tubes (LoBind Eppendorf), to which 525 μL ice-cold capillary buffer (10 mM HEPES, 141 mM NaCl, 4 mM KCl, 2.8 mM CaCl2, 1 mM MgSO4, 1 mM NaH2PO4, and 10 mM D-glucose adjusted to pH 7.4) was added. The tubes (LoBind Eppendorf) were homogenized. Next, 1000 μL of 26% ice-cold dextran solution in capillary buffer was added and vortexed and the tubes were subsequently centrifuged at 20 000 ×g for 60 min at 4°C. Parenchyma and fat tissue (supernatant) were transferred into separate tubes (LoBind Eppendorf) and weighed. The capillaries (pellet) were kept in the original tube. The sample preparation of the pellet and the supernatant is the same sample preparation method as used for the mice brains and mice serum, respectively, as described in Section 2.6.
The distribution in the brains was calculated as follows: (5) Fraction%=Mtissue/Mcapillaries+Mparenchyma×100 in which M tissue is the amount of pellitorine in the capillaries and parenchyma, M capillaries the amount of pellitorine in the capillaries, and M parenchyma the amount of pellitorine in the parenchyma. The capillary depletion experiment was performed in duplicate and mean values are reported.

[3] = test system: Caco-2 cell monolayer; experiment: Caco-2 cell permeability assay; format: in vitro ADME, human
Description: (§1) The Caco-2 cell line originated from a human colorectal carcinoma and was maintained in Dulbecco's modified Eagle's medium (DMEM) (95% humidity, 37°C, 5% CO2), supplemented with 10% (V/V) fetal bovine serum, 100 U/mL penicillin and 100 μg/mL streptomycin, 2 mM L-glutamine, and 1% nonessential amino acids (all from Invitrogen/GIBCO, Ghent, Belgium).
(§2) The Caco-2 cell intestinal model was used to investigate the gut mucosa permeation of pellitorine. On each Transwell (Corning Costar, New York, USA) membrane insert filter (0.4 μm pore size, 12 mm filter diameter), the cells were seeded at a density of 2.6 · 10^5 cells/cm^2 cells and cultivated in the described supplemented DMEM. Every second day, the medium was changed. During a period of 21–29 days, the cells were grown and differentiated until monolayers were formed. The integrity of the monolayers was checked via the measurement of transepithelial electrical resistance (TEER) of the monolayers with a Millicell-ERS system (Millipore Corp., Bedford, MA, USA) before and after the transport experiments. The experiments were performed in duplicate for each dose solution. Transport experiments were carried out according to Hubatsch et al. in two directions: from the apical-to-basolateral (ab) direction and from the basolateral-to-apical (ba) direction in Hanks' Balanced Salt solution. Two dose solutions of pellitorine (in Anacyclus pyrethrum extract) of 1 μg/mL in 0.5% EtOH (further indicated as DS1) and of 56 μg/mL in 0.5% of a mixture of vitamin E-TPGS (33.3%), EtOH (11.1%), PEG 400 (33.3%), and PG (22.2%) (further indicated as DS2) dissolved in HBSS were tested.
(§3) Final apical volumes of 0.4 mL and basolateral volumes of 1.2 mL were used for 12 mm filter supports during the transport experiment. After 15, 30, 60, 90, and 120 min, samples were taken from the receiver compartment (basolateral to apical transport: 100 μL, apical-to-basolateral transport: 300 μL) and immediately replaced by fresh HBSS. […] Pellitorine was quantified using a ultraperformance liquid chromatography-tandem mass spectrometry (UPLC-MS^2) method as described below.
(§4) The apparent permeability coefficient (P app in cm/s) of pellitorine in DS2 was calculated using a sink condition equation, while P app of pellitorine in DS1 was calculated using a nonsink equation. From Fick's first law, J = −D × [dC(x)]/dx (J is the flux or transfer rate along the donor-to-receptor side, D is the diffusion coefficient, x is the distance from the donor compartment, and C(x) is the concentration in the barrier at the coordinate x in the barrier), the following differential equation is derived: dM r(t)/dt = P app × A × [C d(t) − C r(t)], in which P app is the apparent permeability coefficient (a product of distribution coefficient with diffusion coefficient divided by the barrier thickness), M r is the amount of substance in the receiver chamber, A is the cross-sectional area of the barrier, C d is the donor concentration, and C r is the receiver concentration. This differential equation can be solved to calculate P app using different initial conditions depending on sink or nonsink conditions. In case of sink conditions, the following equation was obtained from the amount of compound transported per time dM r(t)/dt with the receiver concentration set to zero [18, 20]:(1) Mrt/Cd,0=Papp×A×t+c, where P app is the apparent permeability coefficient (cm/s), A is the surface area of the filter (1.12 cm^2), C d,0 is the initial concentration in the donor chamber (μg/mL), t is the time (s), and c is a constant term which vanishes, since M r is initially zero at t = 0.
(§5) The donor concentration at each time point was calculated by taking into account the amount of compound which already permeated through the cell monolayer during that time interval. In this way, the reduction in donor concentration after every sampling was also taken into account.

[4] = Caco-2 cell permeability assay; format: in vitro ADME, human; details: human, Caco-2
Description: as §1, §2, §3, §4, §5

[5] = apical-to-basolateral, DS1, after 120 min
[6] = apical-to-basolateral, DS2, after 120 min
[7] = basolateral-to-apical, DS1, after 120 min
[8] = basolateral-to-apical, DS2, after 120 min

fraction in brain capillaries ([2]; mean of duplicate): 3%
fraction in brain parenchyma ([2]; mean of duplicate): 97%
Kp at 10 min ([2]; brain capillaries (relative to serum), read-out: brain capillaries, brain/serum ratio): 0.01
Kp at 10 min ([2]; brain parenchyma (relative to serum), read-out: brain parenchyma, brain/serum ratio): 0.347
uptake ratio (P app,ab/P app,ba) ([3]; DS1): 0.84
uptake ratio (P app,ab/P app,ba) ([3]; DS2): 1.96
amount of pellitorine permeated [3, 5]: 0.31 µg
percentage of applied pellitorine permeated [3, 5]: 56.7%
amount of pellitorine permeated [3, 6]: 2.24 µg
percentage of applied pellitorine permeated [3, 6]: 9.98%
amount of pellitorine permeated [3, 7]: 0.39 µg
percentage of applied pellitorine permeated [3, 7]: 23.7%
amount of pellitorine permeated [3, 8]: 1.24 µg
percentage of applied pellitorine permeated [3, 8]: 1.84%
ratio of P app values between the apical-to-basolateral and the basolateral-to-apical direction or vice versa ([3]; both dose solutions): ≤ 2
Papp A→B at 120 min, 1 μg/mL ([4]; DS1: 1 μg/mL pellitorine (in Anacyclus pyrethrum extract) in 0.5% EtOH in HBSS, nonsink equation, mean ± SD, n = 2, read-out: apparent permeability coefficient (P app), apical-to-basolateral transport): 48.08 ± 0.08 ×10⁻⁶ cm/s
Papp B→A at 120 min, 1 μg/mL ([4]; DS1, mean ± SD, n = 2, read-out: apparent permeability coefficient (P app), basolateral-to-apical transport): 57.5 ± 6.2 ×10⁻⁶ cm/s
Papp A→B at 120 min, 56 μg/mL ([4]; DS2: 56 μg/mL pellitorine (in Anacyclus pyrethrum extract) in 0.5% vitamin E-TPGS/EtOH/PEG 400/PG mixture in HBSS, sink equation, mean ± SD, n = 2, read-out: apparent permeability coefficient (P app), apical-to-basolateral transport): 5.5 ± 0.06 ×10⁻⁶ cm/s
Papp B→A at 120 min, 56 μg/mL ([4]; DS2, mean ± SD, n = 2, read-out: apparent permeability coefficient (P app), basolateral-to-apical transport): 2.8 ± 0.09 ×10⁻⁶ cm/s
recovery at 120 min ([4]; after 120 min, read-out: mass balance, total recovery): 104 to 132%
Structure (SMILES): CCCCC/C=C/C=C/C(=O)NCC(C)C [pellitorine, deca-2E,4E-dienoic acid isobutylamide]
log P [1]: 3.65
